From US10519107B2, “Sulfonamide compounds and their use as STAT5 inhibitors” (Governing Council of the University of Toronto, priority 2014, dated 2019) come the findings set out here.

Test [1] relates to 120 representative kinases (incl. JAK 1/2, ABL, FLT-3). Briefly: KINOMEscan (DiscoverX) kinase profiling. The format is binding. Conditions: 5 μM, 120 kinases incl. JAK 1/2, ABL, qPCR. On the procedure:
KINOMEscan kinase profiling was performed as previously described (Fabian et al., 2005; Karaman et al., 2008). For most assays, kinase-tagged T7 phage strains were grown in parallel in 24-well blocks in an E. coli host derived from the BL21 strain. E. coli were grown to log-phase and infected with T7 phage from a frozen stock (multiplicity of infection=0.4) and incubated with shaking at 32° C. until lysis (90-150 minutes). The lysates were centrifuged (6,000×g) and filtered (0.2 μm) to remove cell debris. The remaining kinases were produced in HEK-293 cells and subsequently tagged with DNA for qPCR detection as previously described (Wodicka et al., 2010). […] The liganded beads were blocked with excess biotin and washed with blocking buffer (SeaBlock (Pierce), 1% BSA, 0.05% Tween 20, 1 mM DTT) to remove unbound ligand and to reduce non-specific phage binding. […] All reactions were performed in polypropylene 384-well plates in a final volume of 0.04 ml. […] The kinase concentration in the eluates was measured by qPCR and the data presented as % Ctrl (FIG. 1).
On the technique in general: In qPCR the cycle at which signal appears reflects the starting amount.

For test [2], the target named is T1, wildtype STAT5B protein (SH2 domain) (Homo sapiens, UniProt P51692).
T1 sequence (P51692 1-787): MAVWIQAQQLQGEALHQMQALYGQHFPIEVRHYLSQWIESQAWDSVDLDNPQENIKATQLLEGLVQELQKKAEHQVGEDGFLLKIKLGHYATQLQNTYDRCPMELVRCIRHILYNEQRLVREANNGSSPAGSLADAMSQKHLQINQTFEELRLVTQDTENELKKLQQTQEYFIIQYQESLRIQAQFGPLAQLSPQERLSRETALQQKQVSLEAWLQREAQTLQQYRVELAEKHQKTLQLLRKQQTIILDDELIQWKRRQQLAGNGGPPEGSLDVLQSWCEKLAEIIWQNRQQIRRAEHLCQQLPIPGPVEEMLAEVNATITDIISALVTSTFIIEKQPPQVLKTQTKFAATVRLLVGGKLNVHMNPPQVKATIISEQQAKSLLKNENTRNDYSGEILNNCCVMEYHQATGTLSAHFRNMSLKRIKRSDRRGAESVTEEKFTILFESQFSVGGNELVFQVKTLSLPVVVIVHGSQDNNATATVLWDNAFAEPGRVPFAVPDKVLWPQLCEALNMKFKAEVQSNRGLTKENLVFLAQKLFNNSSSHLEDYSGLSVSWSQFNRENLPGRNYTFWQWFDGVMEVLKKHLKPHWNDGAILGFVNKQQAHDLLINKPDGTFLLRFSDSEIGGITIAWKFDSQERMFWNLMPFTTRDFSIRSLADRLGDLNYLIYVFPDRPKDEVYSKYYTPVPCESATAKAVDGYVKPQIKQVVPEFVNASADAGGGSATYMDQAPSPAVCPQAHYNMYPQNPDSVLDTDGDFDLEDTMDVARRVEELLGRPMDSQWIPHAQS
Briefly: Fluorescence polarization competitive binding, STAT5b. The conditions noted are these: FP. Here is the method:
Fluorescence assays were performed in flat black 384-well plates (Corning) and fluorescence polarization measurements were taken with the Infinite M1000 machine (Tecan, Crailsheim, Germany). The buffer conditions for all assays were 20 mM HEPES, 50 mM NaCl, 1 mM EDTA, 2 mM dithiothreitol, pH 7.5 and the final DMSO concentration in the wells was kept constant at 10%.
The point at which 80% of the fluoresceinated-phosphopeptide was bound was used as the optimal protein concentration required for the competitive fluorescent polarization assays.
Compounds were titrated at concentrations ranging from 1->60,000 nM and incubated for a further 15 minutes at which point fluorescence polarization measurements were taken in triplicate. The final well concentrations of the fluoresceinated-phosphopeptide and STAT5B were 10 nM and 250 nM, respectively.
The resulting fluorescence polarization measurements were normalized and plotted against compound concentration on a logarithmic scale. The raw data was fitted with a standard dose-normalized response inhibition curve using GraphPad Prism 6 software.
Modified Cheng-Pruskoff equation containing a correction factor for protein concentration.

The target in test [3] is STAT3 (Homo sapiens, UniProt P40763). Briefly: SPR binding, His-tagged STAT3. The conditions noted are these: 25° C., Langmuir 1:1 binding model. Here is the method:
Interactions of His-tagged STAT3 and STAT5 with small molecules were investigated using SPR spectroscopy. The binding experiments were carried on a ProteOn XPR36 (Bio-Rad) biosensor at 25° C. using the HTE sensor chip (Bio-Rad, Ontario, Canada). The flow cells of the sensor chip were loaded with a nickel solution at 30 μL/min for 120 s to saturate the Tris-NTA surface with Ni(II) ions. […] When the injection of the compounds was completed, running buffer was allowed to flow over the immobilized substrates for the non-specifically bound inhibitors to dissociate for 600 s. Following dissociation of the compounds, the chip surface was regenerated with an injection of 1 M NaCl at a flow rate of 100 μL/min for 18 s. Interspot channel reference was used for non-specific binding corrections and the blank channel used with each analyte injection served as a double reference to correct for possible baseline drift. Data were analysed using ProteOn Manager Software version 3.1.

A word on the IC50: it is the point on the concentration scale where inhibition reaches its midpoint. A low value points to greater potency in that assay. As usually defined, the Ki is the equilibrium dissociation constant of an inhibitor or competing ligand from its target. One may read the Kd as the equilibrium constant for the complex coming apart. Lower therefore signals higher affinity.

STAT3, sequence (P40763 whole entry): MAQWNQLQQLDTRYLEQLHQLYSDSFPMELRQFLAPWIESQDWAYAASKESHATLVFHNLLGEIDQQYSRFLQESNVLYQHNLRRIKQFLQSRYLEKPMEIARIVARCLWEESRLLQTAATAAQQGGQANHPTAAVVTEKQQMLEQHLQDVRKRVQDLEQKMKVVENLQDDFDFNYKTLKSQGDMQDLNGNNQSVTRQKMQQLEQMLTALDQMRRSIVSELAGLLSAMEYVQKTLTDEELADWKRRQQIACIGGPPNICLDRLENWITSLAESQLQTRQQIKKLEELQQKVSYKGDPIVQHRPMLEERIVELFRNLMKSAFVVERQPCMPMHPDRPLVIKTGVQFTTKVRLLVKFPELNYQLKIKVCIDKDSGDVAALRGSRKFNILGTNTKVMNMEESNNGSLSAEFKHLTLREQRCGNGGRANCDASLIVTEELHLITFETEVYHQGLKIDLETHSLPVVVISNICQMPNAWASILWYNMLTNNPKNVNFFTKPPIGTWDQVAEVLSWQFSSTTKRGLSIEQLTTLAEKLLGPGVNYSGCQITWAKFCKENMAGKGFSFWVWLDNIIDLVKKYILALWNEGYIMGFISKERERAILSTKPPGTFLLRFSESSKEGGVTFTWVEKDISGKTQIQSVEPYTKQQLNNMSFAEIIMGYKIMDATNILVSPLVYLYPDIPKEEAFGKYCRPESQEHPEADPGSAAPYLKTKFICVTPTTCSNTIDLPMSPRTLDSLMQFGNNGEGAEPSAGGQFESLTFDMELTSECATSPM

Consider `CC(C)(C)c1cc(CN(C(=O)CN(Cc2ccc(Cl)cc2)S(=O)(=O)c2c(F)c(F)c(F)c(F)c2F)c2ccc(C(=O)O)c(O)c2)cc(C(C)(C)C)c1` [Compound 13a, 4-(2-((N-(4-chlorobenzyl)-2,3,4,5,6-pentafluorophenyl)sulfonamido)-N-(3,5-di-tert-butylbenzyl)acetamido)-2-hydroxybenzoic Acid], for which the “effects against the bank of kinases” value in test [1] is given as “negligible effects”. The molecule further yielded an IC50 in test [2] (5-FAM-GpYLVLDKW 10 nM, STAT5B 250 nM) of 370 nM. In addition, the inhibition constant (Ki) in test [2] (converted from IC50 with Equation 1) came out at 150 nM. The Kd in test [3] amounted to 287 ± 29 nM.
